Data: article PMC4919066 (PLoS Pathogens, 2016)
Counter-ions that a name gives are not always drawn.

Assays:
[1] = Cell viability, MTT-based colorimetric assay; conditions: human, non-infected human foreskin fibroblasts (HFFs), cell viability after 72 h
Description: Cell viability was determined by an MTT-based colorimetric assay (Sigma-Aldrich), and performed at the same time points as the antiviral assay.

[2] = tested on: HCMV Towne; assay: HCMV plaque reduction assay in HFFs; assay type: cell-based, Human Cytomegalovirus
Description: Human Foreskin Fibroblasts (HFFs) passage 12–16 (ATCC, CRL-2088) and mouse embryonic fibroblasts (MEFs) passage 9–14 (ATCC, CRL-1658) were grown in Dulbecco's Modified Eagle Medium (DMEM) containing 10% fetal bovine serum (FBS) (Gibco, Carlsbad, CA) in a 5% CO2 incubator at 37°C. Infection with HCMV or HSV was performed in HFFs, and infection with mouse CMV was performed in MEFs. For HCMV, cells were seeded in either a 96-well plate or 100 mm culture plates (Corning Costar, Sigma Aldrich) at 0.5 or 2 million cells /plate. Following 90 minute adsorption, media was removed and cells were washed with PBS. Media containing 4% FBS and compounds were added to each well. Infected treated HFFs were collected at 72 hpi and lysates were assayed for luciferase activity using a luciferase assay kit (Promega, Madison, WI) on GloMax-Multi+ Detection System (Promega). In second cycle assays, supernatants were collected from all conditions of the first cycle at 96 hpi and used for infection of fresh HFFs in 96-well plates. Luciferase activity was measured 72 h following second cycle infection. For HSV1-KOS/Dlux/oriS, a luciferase assay was performed at 24 hpi. Plaque assays were performed with clinical isolates of HSV2 and HCMV Towne (ATCC VR-977). HFFs were seeded at […] in 12-well plates and infected 24 h later with HSV2 at 200 PFU/well. For HCMV or MCMV, HFFs or MEFs were seeded at 0.5 or 2 million cells /plate in a 12-well plate and infected 24 hours later at 100 PFU/well. Following virus adsorption (60 min and 90 min for HSV and HCMV, respectively), virus was aspirated, and DMEM containing 4% fetal bovine serum (FBS) with (for HSV) or without (for HCMV/MCMV) 0.5% carboxymethyl-cellulose, were added with the compounds at indicated concentrations into triplicate wells. After incubation at 37°C for 10 days (for HCMV), 3 days for MCMV or 2 days (for HSV), the overlay was removed and plaques were counted after crystal violet staining.

[3] = tested on: MCMV
Description: For infection experiments BALB/c mice, 4–6 weeks old, were purchased from Harlan Laboratories (Indianapolis, Indiana). The Animal Care and Use Committee of Johns Hopkins University approved the experimental procedures. […] Mice were infected intraperitoneally with 10^6 PFU/mice (0.1 mL in 0.8% saline). Control mice received 0.1 ml of saline intraperitoneally. […] GCV was administered intraperitoneally twice daily. […] Control and infected mice received equivalent volumes of saline. Mice were sacrificed at day 14 after infection. Blood samples were collected by cardiac puncture. Salivary glands and liver were harvested and stored at -80°C. Organs were homogenized in DMEM with 4% FBS at a final concentration of 100 mg/mL. Two million MEFs were seeded into 24-well plates. From each sample, 5% of the salivary gland homogenate or 10% of the liver homogenate was used for infection of MEFs in triplicates. Plaques were counted after three days. Whole blood viral load was measured at day 14 by real-time PCR of the glycoprotein B (gB) gene. DNA was extracted using the DNA blood mini kit (Qiagen, Georgetown, MD).

[4] = tested on: MDM2-IE2; assay: Co-immunoprecipitation MDM2-IE2 in transfected HEK293 cells; assay type: cell-based; conditions: IE1/2 transfection, emetine 75 nM or GCV 5 μM for 4 h
Description: HEK-293 cells seeded into 10 cm petri dishes were transfected with HCMV plasmid encoding IE1 and IE2 (pRL45), using Lipofectamine 2000 in serum free medium. After 6 h, 10% FBS containing media was added along with 10 μM of MG132. […] Cells were then harvested to prepare lysates for IP.
Non-infected, infected or emetine-treated HFFs were treated with MG132 (10 μM) for 12h. Cells were harvested after 24 hpi and lysed with IP buffer containing 150 mM NaCl, 50mM Tris pH 7.5, 2 mM EDTA, 0.5% TritonX-100 and 0.5% NP-40-40. 1 mg of lysate was precleared with bead slurry for 30 min. The precleared lysates were incubated with anti-MDM2 (2 μg) antibody overnight. The antibody complexes were isolated using protein A/G beads (Santa Cruz), washed three times with 50% IP buffer. The immunoprecipitate-protein A/G beads were boiled in SDS sample buffer, and the supernatant was analyzed on SDS-PAGE gels after immunoblotting as described previously. 1% of the cell lysate used for IP was loaded on gels as ‘Input’. Confirmatory reverse IPs were performed as described in each experiment. Isotype control antibodies included: rabbit IgG polyclonal, mouse IgG2a kappa and mouse IgG2b kappa monoclonal (Abcam). Mouse monoclonal RPS19 antibody (Abcam) served as an additional negative control for the IPs. Densitometry analysis was performed to determine relative ratio of immunoprecipitated protein to its input level.

[5] = tested on: pp28-luciferase HCMV Towne; assay: Drug combination with GCV, Bliss model; assay type: cell-based, Human Cytomegalovirus; conditions: emetine combined with GCV, luciferase assay
Description: The combined inhibitory effect of compounds on HCMV replication was determined in infected HFFs as previously reported. The Bliss model, in which drug combination represents the product of two probabilistically independent events, was used for analysis.

[6] = tested on: p21; assay: qRT-PCR for p21; assay type: cell-based, human; conditions: emetine 75 nM, infected high-density cells
Description: Total RNA was isolated from cultured cells using RNeasy Mini kit (Qiagen). RevertAid first strand cDNA synthesis kit (Fermentas life sciences, Cromwell Park, MD) was used to synthesize first strand cDNA from total RNA using oligo-dT primers. Negative RT reactions were included to ensure the specificity of qRT-PCR reactions. Synthesis of first strand cDNA from mRNA template was carried out at 42°C for 1 h. Quantitative RT-PCR was performed in triplicates using specific primers for p21 (F: 5’ […] 3’; R: 5’ […] 3’) and SYBR green (Fermentas life science) with two-step cycling protocol (95°C for 15 s, 60°C for 1 min). GAPDH (F: 5’ […] 3’; R: 5’ […] 3’) was used as the internal control.

[7] = all treatment regimens (0.1 or 1 mg/kg oral, from 24 or 72 hpi), day 14

## CC[C@H]1CN2CCc3cc(OC)c(OC)cc3[C@@H]2C[C@@H]1C[C@H]1NCCc2cc(OC)c(OC)cc21 [emetine, emetine dihydrochloride hydrate]
[1]
  CC50 at 72 h: 8 ± 0.56 µM
[2]; Human betaherpesvirus 5, read-out: Mean EC50 ± SD
  EC50: 0.068 µM
[2]; emetine 75 nM, 2 million cells/plate as compared to 0.5 million cells/plate
  reduction in the number and size of plaques: 30 fold
[3]; 0.1 or 1 mg/kg orally every three days from 24 h or 72 h after infection, day 14
  decrease in MCMV DNA copy number in blood compared to infected control: 2 to 4 log10
[3]; [7]
  reduction of viral PFUs in liver: 3–6 fold
  reduction of viral PFUs in salivary gland: 4–6 fold
[3]; mouse
  tolerability in mouse CMV model: well-tolerated
[4]
  interaction between MDM2 and IE2: significantly decreased
[5]
  HCMV inhibition in combination with GCV: synergistic
[6]; 24 hpi
  increase in p21 mRNA: 5.4 fold
[6]; 72 hpi
  increase in p21 mRNA: 6.7 fold
